Assay results published in patent US12590099B2, “Inhibitors of histone deacetylase useful for the treatment or prevention of HIV infection” (Merck Sharp & Dohme LLC, priority 2018, dated 2026).
Read-outs that look alike come from different tables or passages of the source.

Columns and labels:
[1] = test system: KARN cells (Jurkat 2C4); assay: cells; format: cell-based; details: luciferase induction, 100% = 2 μM SAHA
In short: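 Luminescence (Steady-Glo, 10 min, room temperature) measured next day in KARN Jurkat 2C4 cells given compounds at up to 40 μM final with 0.4% DMSO. Percent activation normalised to DMSO (0%) and 2 μM SAHA (100%), fitted by 4-parameter curve.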

[2] = molecular target: T1, Recombinant human HDAC2 (Homo sapiens, UniProt Q92769); assay: Human HDAC enzyme inhibitor Fluor-de-Lys assay, HDAC2; format: biochemical; details: recombinant human HDAC2, Fluor-de-Lys assay
T1 construct: Full length human HDAC2-FLAG was expressed in baculovirus infected Sf9 cells; FLAG (C); made in house; host or cells: Sf9 (baculovirus)
In short: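 Fluor-de-Lys format at room temperature (23° C.): compounds titrated 10-point, 1:3, preincubated with HDAC before substrate addition. Developer with excess HDAC inhibitor ends the reaction, and trypsin-liberated AMC fluorescence is the read-out.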

[3] = Homo sapiens, Jurkat, read-out: Karn EC50 (nM) 0.1% NHS, 0.1% normal human serum
[4] = Homo sapiens, Jurkat, read-out: Karn EC50 (nM) 5% NHS, 5% normal human serum

T1 sequence (Q92769 whole entry): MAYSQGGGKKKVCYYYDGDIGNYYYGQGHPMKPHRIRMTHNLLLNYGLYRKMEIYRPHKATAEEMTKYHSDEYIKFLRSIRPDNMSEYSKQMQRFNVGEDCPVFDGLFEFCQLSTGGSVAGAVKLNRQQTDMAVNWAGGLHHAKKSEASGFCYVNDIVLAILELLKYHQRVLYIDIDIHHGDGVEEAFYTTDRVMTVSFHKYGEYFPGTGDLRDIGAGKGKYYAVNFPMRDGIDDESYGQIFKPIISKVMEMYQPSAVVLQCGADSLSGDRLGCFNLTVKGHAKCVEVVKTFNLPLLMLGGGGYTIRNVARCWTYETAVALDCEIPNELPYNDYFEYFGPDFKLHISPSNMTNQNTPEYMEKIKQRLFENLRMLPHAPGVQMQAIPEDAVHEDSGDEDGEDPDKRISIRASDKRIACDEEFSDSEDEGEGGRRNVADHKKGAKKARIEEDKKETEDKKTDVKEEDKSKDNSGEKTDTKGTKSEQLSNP

| Compound | EC50 [1, 3] [nM] | EC50 [1, 4] [nM] | IC50 [2] [nM] | EC50 ([1]; read-out: Karn EC50 (nM) 0.1% NHS, 0.1% normal human serum) [nM] | EC50 ([1]; read-out: Karn EC50 (nM) 5% NHS, 5% normal human serum) [nM] |
| --- | --- | --- | --- | --- | --- |
| CCC(=O)CCCCCC(NC(=O)C1CC12CCN(CC)CC2)c1nc(-c2ccc(F)cc2)[nH]c1-c1ccnn1C (centres unmarked) [Compound 253] | 1870 | 2340 | 111 |  |  |
| CCCn1cc(-c2[nH]c(-c3ccc(F)cc3)nc2C(CCCCCC(=O)CC)NC(=O)C2CC23CCN(CC)CC3)cn1 (centres unmarked) [Compound 254] | 5340 | 6040 | 131 |  |  |
| CCC(=O)CCCCC[C@H](NC(=O)[C@H]1CC12CCN(C)CC2)c1ncc(-c2cnc(OC)nc2)[nH]1 [Compound 255] | 13300 | 14800 | 491 |  |  |
| CCC(=O)CCCCC[C@H](NC(=O)[C@H]1CC12CCN(C)CC2)c1ncc(-c2cnc3c(c2)ncn3C)[nH]1 [Compound 256] | 23700 | > 40000 | 280 |  |  |
| CCC(=O)CCCCC[C@H](NC(=O)[C@H]1CC12CCN(C)CC2)c1ncc(-c2cnc(-n3cc(C)cn3)nc2)[nH]1 [Compound 257] | 8080 | 10600 | 185 |  |  |
| CCC(=O)CCCCC[C@H](NC(=O)[C@H]1CC12CCN(C)CC2)c1ncc(-c2ccc(C(=O)NC3CCOC3)cc2)[nH]1 (some centres unmarked) [Compound 258] | 7440 | 7840 | 23.8 |  |  |
| CCC(=O)CCCCC[C@H](NC(=O)[C@H]1CC12CCN(C)CC2)c1ncc(-c2cnc3cccnc3c2)[nH]1 [Compound 259] | 7930 | 8180 | 95 |  |  |
| CCC(=O)CCCCC[C@H](NC(=O)[C@H]1CC12CCN(C)CC2)c1ncc(-c2ccc(-n3nc(C)cc3C)cc2)[nH]1 [Compound 260] | 717 | 913 | 52.5 |  |  |
| CCC(=O)CCCCC[C@H](NC(=O)[C@H]1CC12CCN(C)CC2)c1ncc(-c2ccnc(N3CCOCC3)c2F)[nH]1 [Compound 261] | 1380 | 1500 | 102 |  |  |
| CCC(=O)CCCCC[C@H](NC(=O)[C@H]1CC12CCN(C)CC2)c1ncc(-c2ccc(-c3cccnc3)nc2)[nH]1 [Compound 262] | 773 | 851 | 18.8 |  |  |
| CCC(=O)CCCCC[C@H](NC(=O)[C@H]1CC12CCN(C)CC2)c1ncc(-c2cn(C)c3ccccc23)[nH]1 [Compound 264] | 78 | 143 | 5.9 |  |  |
| CCC(=O)CCCCC[C@H](NC(=O)[C@H]1CC12CCN(C)CC2)c1ncc(-c2ccc3c(c2)c2ccccc2n3C)[nH]1 [Compound 265] | 142 | 370 | 12.4 |  |  |
| CCOc1ncc(-c2cnc([C@H](CCCCCC(=O)CC)NC(=O)[C@H]3CC34CCN(C)CC4)[nH]2)cn1 [Compound 266] | 9900 | 13800 | 372 |  |  |
| CCC(=O)CCCCC[C@H](NC(=O)[C@H]1CC12CCN(C)CC2)c1ncc(-c2ccc(C)nc2OC)[nH]1 [Compound 268] | 205 | 330 | 17.2 |  |  |
| CCC(=O)CCCCC[C@H](NC(=O)C1=NOC2(CCN(CC)CC2)C1)c1ncc(-c2cc3ccc(C)nc3cc2F)o1 [Compound 269] |  |  | 36.7 | 746 | 1210 |
| CCC(=O)CCCCC[C@H](NC(=O)C1CCC2(CC1)CN(C(C)C)C2)c1ncc(-c2cc3ccccc3nc2OC)[nH]1 [Compound 272] | 163 | 721 | 8.2 |  |  |
| CCC(=O)CCCCC[C@H](NC(=O)CC1CC2(C1)CN(C(C)C)C2)c1ncc(-c2cc3ccccc3nc2OC)[nH]1 [Compound 273] | 111 | 438 | 3.4 |  |  |
| CCC(=O)CCCCC[C@H](NC(=O)C1(N)CC2(CN(C)C2)C1)c1ncc(-c2cc3ccccc3nc2OC)[nH]1 [Compound 276] | 1560 | 4780 | 9.1 |  |  |

| Compound | EC50 [1, 3] [nM] | EC50 [1, 4] [nM] | IC50 [2] [nM] | EC50 ([1]; read-out: Karn EC50 (nM) 0.1% NHS, 0.1% normal human serum) [nM] | EC50 ([1]; read-out: Karn EC50 (nM) 5% NHS, 5% normal human serum) [nM] |
| --- | --- | --- | --- | --- | --- |
| CCC(=O)CCCCC[C@H](NC(=O)[C@H]1CC12CCN(C)CC2)c1ncc(-c2ccc(F)cc2)[nH]1 [Compound 280] | 1020 | 919 | 122 |  |  |
| CCC(=O)CCCCC[C@H](NC(=O)[C@H]1CC12CCN(C)CC2)c1ncc(-c2ccc(C(F)(F)F)cc2)[nH]1 [Compound 284] | 606 | 598 | 82.1 |  |  |
| CCC(=O)CCCCC[C@H](NC(=O)[C@H]1CC12CCN(C)CC2)c1ncc(-c2ccc(F)cc2F)[nH]1 [Compound 289] | 1060 | 1090 | 259 |  |  |
| CCC(=O)CCCCC[C@H](NC(=O)[C@H]1CC12CCN(C)CC2)c1ncc(-c2ccccc2F)[nH]1 [Compound 290] | 415 | 519 | 73.5 |  |  |
| CCC(=O)CCCCC[C@H](NC(=O)CC1CC2(CNC2)C1)c1ncc(-c2ccccc2)[nH]1 [Compound 297] | 5840 | 15800 | 120 |  |  |
| CCC(=O)CCCCC[C@@H](NC(=O)C1CCC2(CC1)CNC2)c1ncc(-c2ccccc2)[nH]1 [Compound 298] | 7010 | 11800 | 144 |  |  |
| CCC(=O)CCCCC[C@H](NC(=O)C1CCC2(CC1)CNC2)c1nnc(-c2cc3ccccc3nc2OC)o1 [Compound 299] | 7000 | 9270 | 35.8 |  |  |
| CCC(=O)CCCCC[C@H](NC(=O)CC1CC2(C1)CN(C(C)=O)C2)c1ncc(-c2ccccc2)[nH]1 [Compound 300, (S)-2-(2-acetyl-2-azaspiro[3.3]heptan-6-yl)-N-(7-oxo-1-(5-phenyl-1H-imidazol-2-yl)nonyl)acetamide] | 9210 | 10200 | 802 |  |  |
| CCC(=O)CCCCC[C@H](NC(=O)CC1CC2(CNC2)C1)c1nnc(-c2cc3ccccc3nc2OC)o1 [Compound 301] | 24200 |  | 77.6 |  |  |
| CCC(=O)CCCCC[C@H](NC(=O)C1CC12CCNCC2)c1nnc(-c2cc3ccccc3nc2OC)o1 (some centres unmarked) [Compound 303] | 2430 | 4260 | 40.5 |  |  |
| CCC(=O)CCCCC[C@H](NC(=O)[C@@H]1CC12CCN(C)CC2)c1nnc(-c2cc3ccccc3nc2OC)o1 [Compound 305] | 2200 | 3090 | 160 |  |  |
| CCC(=O)CCCCC[C@H](NC(=O)[C@H]1CC12CCN(C)CC2)c1nnc(-c2cc3ccccc3nc2OC)o1 [Compound 306] | 690 | 691 | 58.2 |  |  |
| CCC(=O)CCCCC[C@H](NC(=O)CC1CC2(C1)CN(C)C2)c1ncc(-c2ccccc2)[nH]1 [Compound 307] | 3700 | 2570 | 617 |  |  |
| CCC(=O)CCCCC[C@H](NC(=O)CC1CC2(C1)CN(C)C2)c1nnc(-c2cc3ccccc3nc2OC)o1 [Compound 308] | 2690 | 3700 | 97.7 |  |  |
| CCC(=O)CCCCC[C@@H](NC(=O)C1CCC2(CC1)CN(C)C2)c1ncc(-c2ccccc2)[nH]1 [Compound 310] | 1490 | 1920 | 167 |  |  |
| CCC(=O)CCCCC[C@H](NC(=O)CC1CC2(C1)CN(C)C2)c1ncc(-c2cc3ccccc3nc2OC)[nH]1 [Compound 314] | 131 | 811 | 5.1 |  |  |
| CCC(=O)CCCCC[C@H](NC(=O)C1NC(=O)CC12CN(C)C2)c1ncc(-c2cc3ccccc3nc2OC)[nH]1 (some centres unmarked) [Compound 317] | 591 | 1720 | 5 |  |  |
